# Where a name gives a salt, the structure may show the parent alone. Read-outs that look alike come from different tables or passages of the source.
# Assays:
# [1] = cited from earlier work
# [2] = system: FXR-regulated gene expression in human HuH7 hepatoma cells; assay: cells; conditions: Huh-7, 11 h
# Description: EC50 values for FXR-regulated gene expression were determined using a cell-based RNA assay.
# [3] = Single-ascending dose clinical trial: plasma PK and safety
# Description: (§1) SSAO inhibition was determined by measuring relative reductions in plasma H2O2 generation after addition of an exogenous substrate (benzylamine). […] Safety was assessed for 7 (±3) days after dosing.
# (§2) Plasma PK parameters were determined by non-compartmental analysis. […] Percent change in total amine oxidase activity was determined relative to the corresponding pre-dose (baseline) samples.
# [4] = male, human, in vivo
# Description: as §1, §2
structure (smiles),measurement,setting,value
CC[C@H]1[C@@H](O)[C@@H]2[C@H](CC[C@]3(C)[C@@H]([C@H](C)CCNC(=O)NS(=O)(=O)c4ccc(C(C)(C)C)cc4)CC[C@@H]23)[C@@]2(C)CC[C@@H](O)C[C@@H]12 [EDP-305],pruritus in longer term studies,[1],known to result in pruritus
"CC[C@H]1[C@@H](O)[C@@H]2[C@H](CC[C@]3(C)[C@@H]([C@H](C)CCC(=O)O)CC[C@@H]23)[C@@]2(C)CC[C@@H](O)C[C@@H]12 [OCA, obeticholic acid, reference compound]",EC50,"[2]; read-out: EC50, BSEP Gene induction/HuH7",200 nM
same,EC50,"[2]; read-out: EC50, FGF-19 Gene Induction/HuH7",130 nM
same,EC50,"[2]; read-out: EC50, SHP Gene induction/HuH7",200 nM
same,pruritus in longer term studies,[1],known to result in pruritus
O=C(O)c1ccnc(N2CC(O)(c3ccc(OCc4c(-c5c(Cl)cccc5Cl)noc4C4CC4)cc3Cl)C2)c1 [cilofexor],pruritus in longer term studies,[1],known to result in pruritus
COC1CCN(c2ncc(OC/C(=C/F)CN)cn2)CC1 [tosylate salt of Compound 2],Subject incidence of TEAEs considered possibly treatment-related,[3]; 1 mg or placebo (n = 8),0
same,Subject incidence of any TEAE,[3]; 1 mg or placebo (n = 8),0
same,TEAE frequency: constipation,[3]; 1 mg or placebo (n = 8),0
same,TEAE frequency: contact dermatitis,[3]; 1 mg or placebo (n = 8),0
same,TEAE frequency: dysgeusia,[3]; 1 mg or placebo (n = 8),0
same,TEAE frequency: headache,[3]; 1 mg or placebo (n = 8),0
same,TEAE frequency: sore throat,[3]; 1 mg or placebo (n = 8),0
same,TEAE frequency: upper respiratory tract infection,[3]; 1 mg or placebo (n = 8),0
same,Subject incidence of TEAEs considered possibly treatment-related,[3]; 3 mg or placebo (n = 8),0
same,Subject incidence of any TEAE,[3]; 3 mg or placebo (n = 8),0
same,TEAE frequency: constipation,[3]; 3 mg or placebo (n = 8),0
same,TEAE frequency: contact dermatitis,[3]; 3 mg or placebo (n = 8),0
same,TEAE frequency: dysgeusia,[3]; 3 mg or placebo (n = 8),0
same,TEAE frequency: headache,[3]; 3 mg or placebo (n = 8),0
same,TEAE frequency: sore throat,[3]; 3 mg or placebo (n = 8),0
same,TEAE frequency: upper respiratory tract infection,[3]; 3 mg or placebo (n = 8),0
same,Subject incidence of TEAEs considered possibly treatment-related,[3]; 6 mg (n = 8),0
same,Subject incidence of any TEAE,[3]; 6 mg (n = 8),2 (25)
same,TEAE frequency: constipation,[3]; 6 mg (n = 8),0
same,TEAE frequency: contact dermatitis,[3]; 6 mg (n = 8),2 (25)
same,TEAE frequency: dysgeusia,[3]; 6 mg (n = 8),0
same,TEAE frequency: headache,[3]; 6 mg (n = 8),0
same,TEAE frequency: sore throat,[3]; 6 mg (n = 8),1 (12.5)
same,TEAE frequency: upper respiratory tract infection,[3]; 6 mg (n = 8),0
same,Subject incidence of TEAEs considered possibly treatment-related,[3]; 10 mg or placebo (n = 8),1 (12.5)
same,Subject incidence of any TEAE,[3]; 10 mg or placebo (n = 8),3 (37.5)
same,TEAE frequency: constipation,[3]; 10 mg or placebo (n = 8),1 (12.5)
same,TEAE frequency: contact dermatitis,[3]; 10 mg or placebo (n = 8),0
same,TEAE frequency: dysgeusia,[3]; 10 mg or placebo (n = 8),1 (12.5)
same,TEAE frequency: headache,[3]; 10 mg or placebo (n = 8),1 (12.5)
same,TEAE frequency: sore throat,[3]; 10 mg or placebo (n = 8),0
same,TEAE frequency: upper respiratory tract infection,[3]; 10 mg or placebo (n = 8),1 (12.5)
same,Subject incidence of TEAEs considered possibly treatment-related,[3]; All (n = 32),1 (3.1)
same,Subject incidence of any TEAE,[3]; All (n = 32),5 (15.6)
same,TEAE frequency: constipation,[3]; All (n = 32),1 (3.1)
same,TEAE frequency: contact dermatitis,[3]; All (n = 32),2 (6.3)
same,TEAE frequency: dysgeusia,[3]; All (n = 32),1 (3.1)
same,TEAE frequency: headache,[3]; All (n = 32),1 (3.1)
same,TEAE frequency: sore throat,[3]; All (n = 32),1 (3.1)
same,TEAE frequency: upper respiratory tract infection,[3]; All (n = 32),1 (3.1)
same,clearance from plasma,"[3]; single doses, healthy humans",rapidly cleared from plasma
same,TEAE frequency: oral herpes,[4],1 (3.1)
O=C(O)c1cc(F)c2nc(N3[C@@H]4CC[C@H]3C[C@@H](OCc3c(-c5ccccc5OC(F)(F)F)noc3C3CC3)C4)sc2c1 [tropifexor],pruritus in longer term studies,[1],known to result in pruritus
